According to patent US7476646B1, “Agricultural promoters/active ingredients” (CJB Industries, Inc., priority 2004, dated 2009):

Key:
[1] = tested on: fungal and bacterial pathogens; test: Field control trial, plant growth, grower rating, phytotoxicity, overall control; assay type: in vivo; details: comparison area
Excerpt: This composition was applied to a field to which other treatments had been applied. The conditions under which this field control was studies are summarized below.
Treatment—400 ppm Dicocodimethylammonium chloride+1200 ppm EDTA+400 ppm Citric acid+40 ppm soyamine+3000 ppm soybean oil+180 ppm Tergitol NP-6
The field was visited the day of application for a pre-spray disease rating. Major problems were observed, and minor problems were observed as well. Ratings were made on the major diseases Bacterial Spot, Grey Mold, Blight, and Leaf Spot. The observations and % ratings were also taken for Rhizoctonia, Powdery Mildew, Stem Rot, and Bacterial Speck.
The quat salt treatment was applied at a rate of 1 gallon of the composition/100 gallons of water/acre. This relatively low treatment rate provided some concerns regarding complete coverage due to the low volume of water and bushiness of the plants. Blight and Stem Rot were both located at the lower portion of the plant and concealed by a lot of foliage.
Four plants had been marked on day 1 so that their progress could be tracked both in terms of growth and disease control. All four had grown between 5 and 7 inches in height with a tremendous amount of flowering and new growth present.
The grower gave the Treatment a 4 on a scale of 1 (Poor) to 5 (Perfect), when compared to hydrogen peroxide. H is rating for hydrogen peroxide was 2.5 to 3.

Staphylococcus = details: on Staphylococcus; cited from earlier work
[2] = on contact lenses; cited from earlier work
Erwinia carotovora = test: Effect of quat salts on Erwinia carotovora (percent inhibition); assay type: cell-based
Procedure: To measure the antibacterial effectiveness of the quat salts, the effect of various salts, at an application rate of 50 ppm, was measured. The data regarding the effectiveness is summarized below:
The effectiveness of lower concentrations of the quat salts at inhibiting Erwinia carotovora infection was also measured, where various additives were also added.

Compound	Percent Inhibition (Erwinia carotovora; application rate of 50 ppm)	other results
S=C([S-])NCCNC(=S)[S-].[Zn+2] [Dithane, zinc ethylenebis(dithiocarbamate)]		response of diseases in treated area [1]: responding (especially on molds and mildews) but not as rapid and completely
Benzalkonium chloride [BAC]		effectiveness relative to other QACs tested (Staphylococcus): about 2.5; effectiveness relative to other QACs [2]: about 6 times
Cocoalkyltrimethyl ammonium chloride	25%	
Dicoco dimethyl ammonium chloride	75%	Percent Inhibition (Erwinia carotovora; 30 ppm dicoco dimethyl ammonium chloride with additive (level relative to quat)): 40%
Ditallow dimethyl ammonium chloride	50%	
Soyalkyltrimethyl ammonium chloride	35%	
Tallowalkyltrimethyl ammonium chloride	30%	
